Assay results as given in patent US7666635B2, “Process for the preparation of amides” (priority 1997, dated 2010).
Counter-ions that a name gives are not always drawn. Like-named read-outs stand apart in the source and are kept apart here.

Key:
[1] = test system: NA40 nitrile hydratase (resting NA40 cells); test: Substrate specificity of resting NA40 cells; format: cell-based, Amycolatopsis NA40; details: resting NA40 cells, 20° C., 10 min; 3-cyanopyridine = 100; substrate concentration per Table 8
Description: (3) For determination of the activity of NA40 with respect to a number of substrates, cells having a dry weight of 0.0388 mg were incubated in the buffer described above. The reaction was started by addition of the appropriate substrate and incubated at 20° C. with shaking for 10 min. The reaction was stopped by addition of 0.2 ml of 2 N HCl and the reaction mixture was briefly centrifuged. The supernatant was analysed by means of HPLC or gas chromatography.

[2] = test system: purified nitrile hydratase from NA40; test: Substrate specificity of the purified nitrile hydratase; format: biochemical, Amycolatopsis NA40; details: purified enzyme; 3-cyanopyridine = 100
Description: The substrate specificity was determined analogously to Example 2 (1).
1.7 Units of enzyme were added to the reaction mixture (2.0 ml). The reaction mixture contained the respective substrate in 45 mM phosphate buffer (pH 7.0).

[3] = test system: Rhodococcus rhodochrous J1; test: Substrate specificity of the Rhodococcus strains; format: cell-based; details: Rhodococcus rhodochrous J1; 3-cyanopyridine = 100
Description: (§1) Rhodococcus rhodochrous J1 was cultured for 72 h in the medium described in EP-A 0 307 926. The microorganisms Rhodoccus GF674, GF578, GF270 and GF376 were cultured in the following media at pH 7.0 for up to 96 h:
(§2) The substrate specificity is summarized as relative activity in Table 15.

Rhodococcus GF376 = test: Substrate specificity of the Rhodococcus strains; format: cell-based; details: Rhodococcus GF376; 3-cyanopyridine = 100
Description: as §1
(§3) Rhodoccus GF674 in a medium comprising yeast extract 1.0 g/l, fructose 5.0 g/l, malt extract 10.0 g/l, acetamide 5.0 g/l, KH2PO4 2.0 g/l, MgSO47H2O 0.5 g/l and CoCl2.6H2O 10.0 mg. Rhodoccus GF578 in a medium containing yeast extract 1.0 g/l, fructose 15.0 g/l, malt extract 10.0 g/l, acetamide 25.0 g/l, KH2PO4 2.0 g/l, MgSO47H2O 0.5 g/l and CoCl2.6H2O 5.0 mg. […] Rhodoccus GF3 76 in a medium containing yeast extract 1.0 g/l, sodium citrate 10.0 g/l, malt extract 15.0 g/l, butyramide 7.5 g/l, KH2PO4 2.0 g/l, MgSO4.7H2O 0.5 g/l and CoCl2.6H2O 15.0 mg.
as §2

Rhodococcus GF270 = test: Substrate specificity of the Rhodococcus strains; format: cell-based; details: Rhodococcus GF270; 3-cyanopyridine = 100
Description: as §1, §3, §2

Rhodococcus GF674 = test: Substrate specificity of the Rhodococcus strains; format: cell-based; details: Rhodococcus GF674; 3-cyanopyridine = 100
Description: as §1, §3, §2

Rhodococcus GF578 = test: Substrate specificity of the Rhodococcus strains; format: cell-based; details: Rhodococcus GF578; 3-cyanopyridine = 100
Description: as §1, §3, §2

[4] = test system: purified nitrile hydratase from NA40; format: biochemical, Amycolatopsis NA40
Description: The effect of various inhibitors was determined.

Amycolatopsis NA40 [5] = test: Effects of inducers and cofactors on growth and nitrile hydratase activity in the basal medium; format: cell-based
Description: (§4) (1) For determination of the nitrile hydratase activity, a reaction mixture (2 ml) containing 3-cyanopyridine (1.0 M, 1.0 ml), potassium phosphate buffer (pH 7.0, 0.1 M, 0.5 ml) and 0.5 ml of cell suspension were incubated at 20° C. for 30 min with stirring. The reaction was stopped by addition of 0.2 ml of 3 N HCl. After centrifuging briefly, the nicotinamide formed was determined by means of HPLC (Shimadzu SPD 6A system using a C18 column (Develosil ODS-HG-5. […]); eluent: 10 mM KH2PO4/H3PO4 (pH 2.8)/acetonitrile 9:1 (v/v); flow rate: 1 ml/min; the absorption was measured at 230 nm). The specific activity was expressed as µmol of nicotinamide formed/ml/min/OD610 nm.
(§5) The reaction rates of aliphatic nitriles in the enrichment medium (Table 1) with isolated bacteria is summarized in Table 5, the effects of inducers and cofactors in the basal medium (Table 2) is summarized in Table 4 and the activity comparison of Amycolatopsis to Rhodoccus in the basal medium (Table 2) is summarized in Table 6.

Amycolatopsis NA40 [6] = test: Effect of methanol on resting cells of NA40; format: cell-based; details: for Relative activity: 10 min
Description: The reaction was carried out for 10 min in the presence of 0 20% (v/v) methanol according to Table 13.

Actinomadura spadix 45O1 = test: Conversion rates of aliphatic nitriles using the isolated bacteria (enrichment medium); format: cell-based
Description: a) Various soil samples were inoculated with various nitriles or amides as a C and N source in the enrichment medium according to Table 1 and incubated at 37° C. or 45° C. for 7 10 days. The cultures were then transferred to the same medium and again cultured at 37° C. for 7 10 days. The whole process was repeated 3 times. The cultures were then diluted and plated out in order to obtain individual colonies. The plates were incubated at 37° C. for 5 days. The different colonies were then tested for the desired activity.
[…] as a C and N source for Amycolatopsis NE31 (DSMZ 11616) Actinomadura spadix E3733 and Actinomadura spadix E3736, azelanitrile served as a C and N source for Amycolatopsis NA40 (DSMZ 11617) and Actinomadura spadix 45A32, n-octanenitrile served as a C and N source for Actinomadura spadix 4501 and cyanoacetic acid served as a C and N source for Actinomadura spadix C15.
as §4, §5

[7] = substance added as inducer to basal medium
[8] = substance added as inducer to basal medium, nicotinamide formed from 3-cyanopyridine, 20° C.
[9] = substance added as cofactor to basal medium
[10] = inhibitor 1 mM, without inhibitor = 100

SMILES	Relative activity [1] [%]	Relative activity, Enzyme reaction [2] [%]	relative activity (substrate specificity) [3] [%]	relative activity (substrate specificity) (Rhodococcus GF376) [%]	relative activity (substrate specificity) (Rhodococcus GF270) [%]	relative activity (substrate specificity) (Rhodococcus GF674) [%]	relative activity (substrate specificity) (Rhodococcus GF578) [%]	also measured
N#Cc1cccnc1Cl [2-Chloro-3-cyanopyridine]	126	90						
N#Cc1ccccn1 [2-Cyanopyridine]	128	221	45	54.3	15.7	308	200	
O=C(O)c1cc[c]([Hg][Cl])cc1 [4-Chloromercurobenzoic acid]								Relative activity ([4]; inhibitor 0.1 mM, without inhibitor = 100): 69%
N#Cc1ccncc1 [4-Cyanopyridine]	168	179	70	79.8	55.6	231	167	
Oc1cccc2cccnc12 [8-Hydroxyquinoline]								Relative activity [4]: 110%
CC#N [Acetonitrile]			608	806	659	1.49	347	
N#Cc1ccccc1 [Benzonitrile]	51	64	27	57.2	13.4	138	85.1	
CCCC(N)=O [Butyramide]								Growth (OD610 nm) (Amycolatopsis NA40 [5]; [7]): 2.19 OD610 nm; Specific activity (Amycolatopsis NA40 [5]; [7]): 0.88 μmol/ml/min/OD; Total activity (Amycolatopsis NA40 [5]; [8]): 0.19 µmol/mL/min
O.O.O.O.O.O.[Cl-].[Cl-].[Co+2] [CoCl2•6H2O]								Growth (OD610 nm) (Amycolatopsis NA40 [5]; [9]): 8.41 OD610 nm; Specific activity (Amycolatopsis NA40 [5]; [9]): 5.68 μmol/ml/min/OD; Total activity (Amycolatopsis NA40 [5]; [9]): 47.8 µmol/mL/min
C/C=C/C(N)=O [Crotonamide]								Growth (OD610 nm) (Amycolatopsis NA40 [5]; [7]): 3.41 OD610 nm; Specific activity (Amycolatopsis NA40 [5]; [7]): 6.72 μmol/ml/min/OD; Total activity (Amycolatopsis NA40 [5]; [8]): 22.9 µmol/mL/min
CC=CC#N [Crotononitrile]	52	67	78.2	110	37.1	98.0	124	
CCN(CC)C(=S)S [Diethyl dithiocarbamate]								Relative activity [4, 10]: 89%
O=C(O)CN(CCN(CC(=O)O)CC(=O)O)CC(=O)O [EDTA, ethylenediaminetetra-acetic acid]								Relative activity [4]: 115%
O.O.O.O.O.O.O.O=S(=O)([O-])[O-].[Fe+2] [FeSO4•7H2O]								Growth (OD610 nm) (Amycolatopsis NA40 [5]; [9]): 8.32 OD610 nm; Specific activity (Amycolatopsis NA40 [5]; [9]): 0.40 μmol/ml/min/OD; Total activity (Amycolatopsis NA40 [5]; [9]): 3.36 µmol/mL/min
NO [Hydroxylamine]								Relative activity [4, 10]: 37%
O=C(O)CI [Iodoacetic acid]								Relative activity [4]: 39%
C=C(C)C(N)=O [Methacrylamide]								Growth (OD610 nm) (Amycolatopsis NA40 [5]; [7]): 3.33 OD610 nm; Specific activity (Amycolatopsis NA40 [5]; [7]): 0.74 μmol/ml/min/OD; Total activity (Amycolatopsis NA40 [5]; [8]): 2.46 µmol/mL/min

SMILES	Relative activity [1] [%]	Relative activity, Enzyme reaction [2] [%]	relative activity (substrate specificity) [3] [%]	relative activity (substrate specificity) (Rhodococcus GF376) [%]	relative activity (substrate specificity) (Rhodococcus GF270) [%]	relative activity (substrate specificity) (Rhodococcus GF674) [%]	relative activity (substrate specificity) (Rhodococcus GF578) [%]	also measured
C=C(C)C#N [Methacrylonitrile]	130	125	86.9	0	0	176	122	
CCN1C(=O)C=CC1=O [N-ethylmaleimide]								Relative activity [4, 10]: 97%
NNc1ccccc1 [Phenylhydrazine]								Relative activity [4, 10]: 8%
CCC(N)=O [Propionamide]								Growth (OD610 nm) (Amycolatopsis NA40 [5]; [7]): 1.91 OD610 nm; Specific activity (Amycolatopsis NA40 [5]; [7]): 0.48 μmol/ml/min/OD; Total activity (Amycolatopsis NA40 [5]; [8]): 0.92 µmol/mL/min
CCC#N [Propionitrile]	105	222	434	245	37.3	274	132	
NNC(N)=O [Semicarbazide]								Relative activity [4, 10]: 82%
O=S(=O)(O)c1cc(O)c(O)c(S(=O)(=O)O)c1 [Tiron, disodium salt of 4,5-dihydroxy-1,3-benzene-disulphonic acid]								Relative activity [4, 10]: 110%
NC(N)=O [Urea]								Growth (OD610 nm) (Amycolatopsis NA40 [5]; [7]): 1.72 OD610 nm; Specific activity (Amycolatopsis NA40 [5]; [7]): 1.73 μmol/ml/min/OD; Total activity (Amycolatopsis NA40 [5]; [8]): 2.97 µmol/mL/min
N#Cc1cccc(Cl)c1 [m-Chlorobenzonitrile]	75	90	43	8.63	8.41	27.8	28.9	
CO [methanol]								activity of resting NA40 cells (Amycolatopsis NA40 [6]; addition of 5 15% methanol): increased; Relative activity (Amycolatopsis NA40 [6]; methanol 5 % (v/v), 0 % = 100): 123%; Relative activity (Amycolatopsis NA40 [6]; methanol 10 % (v/v)): 128%; Relative activity (Amycolatopsis NA40 [6]; methanol 15 % (v/v)): 130%; Relative activity (Amycolatopsis NA40 [6]; methanol 20 % (v/v)): 105%
CCCC#N [n-Butyronitrile]	194	101	352	195	181	491	368	
CCCCCCCC#N [n-octanenitrile]								Specific activity (Actinomadura spadix 45O1; strain 45O1): 4.45 μmol/ml/min/OD; Total activity (Actinomadura spadix 45O1; strain 45O1): 32.2 µmol/mL/min; Growth (OD610 nm) (Actinomadura spadix 45O1; strain 45O1, nitrile as substrate in enrichment medium): 7.24 OD610 nm
N#Cc1ccccc1Cl [o-Chlorobenzonitrile]	96	127	2.8	0	0	64.8	49.0	
c1cnc2c(c1)ccc1cccnc12 [o-Phenanthroline]								Relative activity [4, 10]: 89%
c1ccc(-c2ccccn2)nc1 [α,α′-Dipyridyl]								Relative activity [4, 10]: 100%
O=C1CCCCCN1 [ε-Caprolactam]								Growth (OD610 nm) (Amycolatopsis NA40 [5]; [7]): 0.66 OD610 nm; Specific activity (Amycolatopsis NA40 [5]; [7]): 14.5 μmol/ml/min/OD; Total activity (Amycolatopsis NA40 [5]; [8]): 9.52 µmol/mL/min
